Results on 18 compounds are retold here after patent US7671077B2, “Neuroprotective small organic molecules, compositions and uses related thereto” (priority 2004, dated 2010).

In the first assay the test system is midbrain dopaminergic neurons. The assay can be described thus: Dopamine (DA) uptake assay in primary midbrain cultures. It is filed as cell-based, rat. As to conditions: Rattus norvegicus, Neuron, compound concentration 0.7 μM; midbrain culture; read-out: DA uptake % of control. As to the method: Primary midbrain cultures were prepared from rat embryo ventral mesencephalon as described previously by Lin et al (1994). In brief, rostral mesencephalic tegmentum of embryonic day 16 rat embryos was collected in DMEM/F12 (Hyclone SH30023.01) containing 2 mM glutamine on ice, The tissue was treated with 0.1% trypsin in Hanks' balanced salt solution (HBSS, Gibco 14175-095) for 15 min at 37° C. and dissociated mechanically by mild trituration with a fire-polished glass pipet in growth medium plus 2% heat-inactivated fetal bovine serum (FBS). The growth medium consisted of equal volumes of Dulbecco's minimal essential medium DMEM (Gibco 12100-046) and HAM's F12 nutrient mixture (Gibco 21700-075) supplemented with 33 mM glucose, 13 mM sodium bicarbonate, 5 mM HEPES, 2 mM glutamine, 25 μg/ml insulin, 100 μg/ml transferrin, 60 μM putrescine, 20 nM progesterone, 30 nM sodium selenite, 5 U/ml penicillin G and 5 μg/ml streptomycin. 24-well tissue culture plate was coated by adding 15 μg/ml poly-1-ornithine hydrobromide solution at 0.5 ml/well, incubated at room temperature for 1 hr. The coating solution was removed and the well washed 3 times with distilled water and one wash with HBSS. The dissociated cells were plated onto polyornithine-coated wells at 250,000-350,000 trypan blue-excluding viable cells per well in 500 μl of above medium containing 1% FBS. After 3 h when most of the cells had adhered to the bottom of the well, the medium was replaced with 500 μl of fresh medium without FBS. A serial dilution of the sample to be assayed for trophic activity was added to each well in duplicate at the time of medium change or within 24 h thereafter. Unless otherwise stated, cultures were incubated at 37° C. without any further medium change up to 7 days. Primary hindbrain cultures were prepared as described for the midbrain cultures except that the rostral raphe region (instead of the rostral mesencephalon) was dissected and trypsinized for 20 (instead of 15) min.
[^3H]DA uptake was measured in cultures at day 7, and all the solutions were maintained at 37° C. The growth medium was removed, and the cultures were rinsed twice with 0.25 ml of uptake buffer, which consists of HBSS (Gibco 11201-092) supplemented with 28 mM glucose, 15 mM HEPES, 1 mM ascorbic acid (an antioxidant), and […] pargyline (a monoamine oxidase inhibitor). The cultures were then incubated with 0.25 ml of fresh uptake buffer containing 50 nM [^3H]DA (NEN/DuPont) for 20 min at 37° C. [^3H]DA uptake was stopped by removing the incubation mixture, and cells were then washed twice with 0.5 ml of the uptake buffer at room temperature. To release [^3H]DA from the cells, the cultures were lysed with 0.2 ml of 0.1 N NaOH for 1 h at room temperature, the lysate was then added to 1 ml of Microscint-20 (Packard 6013621), and counted for radioactivity in a microplate scintillation counter (Packard TopCount, NXT). Background values were obtained by adding to the uptake buffer 0.5 mM GBR-12909, a specific inhibitor of the high-affinity uptake pump of the dopaminergic neurons, and were usually <5% of the ^3H uptake in untreated control cultures. Forskolin (Fk, 25 μM) was employed as a positive control.
Turning to `Cc1cc(NS(=O)(=O)c2ccc(NC(=O)/C=C/c3c(Cl)cccc3Cl)cc2)no1` [I], the activity at 0.7 µM was found to be 150%.

With `O=C(/C=C/c1cccc(Cl)c1)Nc1ccc(S(=O)(=O)Nc2nccs2)cc1` [M], the activity at 0.7 µM came to 120%.

Staying with this assay, now noted: Rattus norvegicus, Neuron, compound concentration 1.25 μM; midbrain culture; read-out: DA uptake % of control.
On to `O=C(/C=C/c1ccccc1C(F)(F)F)Nc1ccc(S(=O)(=O)Nc2nccs2)cc1` [M″], for which the activity at 1.25 µM was 280%.

Staying with this assay, now noted: Rattus norvegicus, Neuron, compound concentration 2.5 μM; midbrain culture; read-out: DA uptake % of control.
Consider `O=C(/C=C/c1ccc(Br)cc1)Nc1ccc(S(=O)(=O)Nc2nccs2)cc1` [O″], for which the activity at 2.5 µM was 290%.

Turning to `COc1ccccc1/C=C/C(=O)Nc1ccc(S(=O)(=O)Nc2nccs2)cc1` [K′′′], the activity at 2.5 µM worked out at 170%.

Consider `O=C(/C=C/c1cccc(O)c1)Nc1ccc(S(=O)(=O)Nc2nncs2)cc1` [V′′′], for which the activity at 2.5 µM came to 160%.

The same assay, now with this note: Rattus norvegicus, Neuron, compound concentration 5 μM; midbrain culture; read-out: DA uptake % of control.
For the compound `O=C(/C=C/c1ccccc1)Nc1ccc(S(=O)(=O)Nc2nnc[nH]2)cc1` [Q′′′], the activity at 5 µM came to 170%.

For the compound `O=C(Nc1ccc(S(=O)(=O)Nc2nccs2)cc1)c1ccc(Br)cc1` [P], the activity at 5 µM stood at 160%.

With `O=C(/C=C/c1ccc([N+](=O)[O-])cc1)Nc1ccc(S(=O)(=O)Nc2nccs2)cc1` [T′′′′], the activity at 5 µM was determined as 180%.

The same assay, now with this note: Rattus norvegicus, Neuron, compound concentration 10 μM; midbrain culture; read-out: DA uptake % of control.
Regarding `COc1ccc(C(=O)Nc2ccc([S+]([O-])Nc3nccs3)cc2)cc1` (stereo not drawn) [H′], the activity at 10 µM stood at 160%.

On to `CCc1nnc(NS(=O)(=O)c2ccc(NC(=O)/C=C/c3ccc(OC)cc3OC)cc2)s1` [U], for which the activity at 10 µM turned out to be 150%.

For `CCc1nnc(NS(=O)(=O)c2ccc(NC(=O)c3ccccc3F)cc2)s1` [Compound Z], the activity at 10 µM came to 150%.

For `COc1ccc(/C=C/C(=O)Nc2ccc(S(=O)(=O)Nc3nnc[nH]3)cc2)cc1` [S′′′], the activity at 10 µM was 190%.

With `O=C(/C=C/c1ccccc1O)Nc1ccc(S(=O)(=O)Nc2ccccn2)cc1` [O′′′], the activity at 10 µM amounted to 150%.

Staying with this assay, now noted: Rattus norvegicus, Neuron, compound concentration 20 μM; midbrain culture; read-out: DA uptake % of control.
Take `Cc1cc(NS(=O)(=O)c2ccc(NC(=O)/C=C/c3ccccc3)cc2)no1` [G′]: the activity at 20 µM came to 140%.

For `O=C(Nc1ccc(S(=O)(=O)Nc2nccs2)cc1)c1ccc(F)c(F)c1` [F], the activity at 20 µM was 180%.

In the case of `O=C(/C=C/c1ccoc1)Nc1ccc(S(=O)(=O)Nc2nccs2)cc1` [N″], the activity at 20 µM amounted to 240%.

For the compound `CCc1nnc(NS(=O)(=O)c2ccc(NC(=O)c3ccc(Cl)cc3)cc2)s1` [X], the activity at 20 µM came out at 140%.
